Test results reported in ChEMBL document CHEMBL1201862, “PubChem BioAssay data set” (2004).
The source made the active and inactive calls.

Columns and labels:
Bcl-2-related protein A1 [1] = biological target: T1, Bcl-2-related protein A1 (Mus musculus, UniProt Q07440); experiment: Bfl-1 binding inhibitors, SAR follow-up, biochemical, fluorescence polarization (AID 1070)
T1 sequence (Q07440 whole entry): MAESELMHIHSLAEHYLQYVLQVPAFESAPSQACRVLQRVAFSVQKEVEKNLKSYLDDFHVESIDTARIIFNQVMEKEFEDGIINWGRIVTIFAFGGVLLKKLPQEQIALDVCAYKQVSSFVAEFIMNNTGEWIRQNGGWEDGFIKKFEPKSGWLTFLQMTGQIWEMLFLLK

Bcl-2-related protein A1 [2] = biological target: T1, Bcl-2-related protein A1; experiment: Bfl-1 inhibitors blocking BH3 peptide binding, confirmation, biochemical, TR-FRET, mouse Bfl-1 (AID 621);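 note: TR-FRET binding of GST-Bfl-1 to FITC-labelled Bid peptide via terbium antibody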
[3] = biological target: Glyceraldehyde-3-phosphate dehydrogenase (Homo sapiens, UniProt P04406)
Glyceraldehyde-3-phosphate dehydrogenase, sequence (P04406 whole entry): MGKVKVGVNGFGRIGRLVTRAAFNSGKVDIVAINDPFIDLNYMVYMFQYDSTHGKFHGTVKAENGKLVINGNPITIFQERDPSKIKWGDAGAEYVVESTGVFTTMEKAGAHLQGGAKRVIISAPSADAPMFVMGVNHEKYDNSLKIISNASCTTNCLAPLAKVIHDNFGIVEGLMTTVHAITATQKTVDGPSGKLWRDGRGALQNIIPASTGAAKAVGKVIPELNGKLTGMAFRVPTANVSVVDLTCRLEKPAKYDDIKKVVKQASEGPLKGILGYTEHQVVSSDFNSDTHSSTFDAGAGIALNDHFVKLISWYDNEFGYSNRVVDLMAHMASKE

[4] = biological target: T2, Glutathione-S-transferase (Schistosoma japonicum, UniProt Q26513); experiment: biotin-GST/anti-GST TR-FRET signal inhibitors, dose response, artefact control for Vif-APOBEC3G degradation inhibitor project, biochemical (AID 1117362); type: functional
T2 sequence (Q26513 whole entry): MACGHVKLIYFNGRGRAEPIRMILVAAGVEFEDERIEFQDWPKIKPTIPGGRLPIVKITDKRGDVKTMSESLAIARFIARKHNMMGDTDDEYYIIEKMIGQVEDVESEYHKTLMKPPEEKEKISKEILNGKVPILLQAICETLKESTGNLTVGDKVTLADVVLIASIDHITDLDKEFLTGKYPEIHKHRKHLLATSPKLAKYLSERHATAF

[5] = biological target: T3, Rac GTPase-activating protein 1 (Homo sapiens, UniProt Q9H0H5); experiment: MgcRacGAP GTPase-activating activity inhibitors, confirmation, biochemical, ADP Hunter fluorescence, primary and confirmatory (AID 624330); type: functional
T3 sequence (Q9H0H5 whole entry): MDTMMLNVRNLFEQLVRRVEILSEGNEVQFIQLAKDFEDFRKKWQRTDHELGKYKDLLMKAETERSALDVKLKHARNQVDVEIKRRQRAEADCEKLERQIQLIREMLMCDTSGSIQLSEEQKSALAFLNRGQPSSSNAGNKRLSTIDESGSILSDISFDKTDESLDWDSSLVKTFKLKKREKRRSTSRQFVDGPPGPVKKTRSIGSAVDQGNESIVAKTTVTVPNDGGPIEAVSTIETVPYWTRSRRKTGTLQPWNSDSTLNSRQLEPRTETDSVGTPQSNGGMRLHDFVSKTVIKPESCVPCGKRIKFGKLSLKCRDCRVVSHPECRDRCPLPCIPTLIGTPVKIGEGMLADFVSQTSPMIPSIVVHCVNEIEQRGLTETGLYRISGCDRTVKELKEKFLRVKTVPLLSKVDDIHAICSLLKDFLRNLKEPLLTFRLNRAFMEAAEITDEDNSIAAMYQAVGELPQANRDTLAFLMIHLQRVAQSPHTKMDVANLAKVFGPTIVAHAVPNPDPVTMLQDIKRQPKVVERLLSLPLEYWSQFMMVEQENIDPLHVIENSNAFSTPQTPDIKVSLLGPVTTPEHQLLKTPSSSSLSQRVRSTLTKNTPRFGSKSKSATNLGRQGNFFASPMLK

[6] = biological target: NAD-dependent protein deacylase sirtuin-5, mitochondrial (Homo sapiens, UniProt Q9NXA8); experiment: SIRT5 desuccinylase inhibitors, dose response, biochemical, fluorescence imaging, cherry-pick, set 5 (AID 720591);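 note: desuccinylation of succinyl peptide AMC substrate read as fluorescence after trypsin release; potency of inhibitors that lower fluorescence and may act on trypsin instead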
NAD-dependent protein deacylase sirtuin-5, mitochondrial, sequence (Q9NXA8 whole entry): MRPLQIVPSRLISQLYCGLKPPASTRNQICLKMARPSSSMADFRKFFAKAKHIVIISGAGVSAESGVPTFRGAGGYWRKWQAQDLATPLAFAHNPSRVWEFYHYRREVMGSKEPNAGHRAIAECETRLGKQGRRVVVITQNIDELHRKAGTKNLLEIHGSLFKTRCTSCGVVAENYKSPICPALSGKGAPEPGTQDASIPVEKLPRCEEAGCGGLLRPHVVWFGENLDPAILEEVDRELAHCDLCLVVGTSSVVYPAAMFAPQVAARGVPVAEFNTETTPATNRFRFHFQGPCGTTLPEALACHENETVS

Large T antigen = Large T antigen (Simian virus 40, UniProt P03070); type: functional, Betapolyomavirus macacae;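 note: Confirmatory-stage PubChem screen for compounds that inhibit SV40 T antigen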
Large T antigen, sequence (P03070 whole entry): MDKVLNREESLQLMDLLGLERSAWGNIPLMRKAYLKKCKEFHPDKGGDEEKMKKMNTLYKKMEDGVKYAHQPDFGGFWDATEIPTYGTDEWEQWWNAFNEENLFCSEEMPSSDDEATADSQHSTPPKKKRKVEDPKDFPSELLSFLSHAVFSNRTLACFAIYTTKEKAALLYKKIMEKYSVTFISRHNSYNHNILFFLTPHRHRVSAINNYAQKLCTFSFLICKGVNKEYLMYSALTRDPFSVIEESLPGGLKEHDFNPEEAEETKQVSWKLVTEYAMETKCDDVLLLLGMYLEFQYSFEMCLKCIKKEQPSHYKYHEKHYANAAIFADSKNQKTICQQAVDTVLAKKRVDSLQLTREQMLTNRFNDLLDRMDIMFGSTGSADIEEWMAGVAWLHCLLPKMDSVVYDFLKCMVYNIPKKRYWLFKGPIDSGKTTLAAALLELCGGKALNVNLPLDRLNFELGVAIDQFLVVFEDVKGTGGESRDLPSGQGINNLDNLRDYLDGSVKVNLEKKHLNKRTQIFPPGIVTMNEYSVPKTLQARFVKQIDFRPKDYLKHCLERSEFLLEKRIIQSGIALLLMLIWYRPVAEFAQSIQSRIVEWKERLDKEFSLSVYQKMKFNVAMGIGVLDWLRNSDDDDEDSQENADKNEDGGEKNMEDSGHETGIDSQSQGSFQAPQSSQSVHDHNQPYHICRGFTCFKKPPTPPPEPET

[7] = biological target: Glucose-6-phosphate 1-dehydrogenase (Homo sapiens, UniProt P11413); experiment: human G6PD enzyme inhibitors, dose response, selectivity assay for P. falciparum G6PD inhibitor project, biochemical, fluorescence (AID 504792); type: functional
Glucose-6-phosphate 1-dehydrogenase, sequence (P11413 whole entry): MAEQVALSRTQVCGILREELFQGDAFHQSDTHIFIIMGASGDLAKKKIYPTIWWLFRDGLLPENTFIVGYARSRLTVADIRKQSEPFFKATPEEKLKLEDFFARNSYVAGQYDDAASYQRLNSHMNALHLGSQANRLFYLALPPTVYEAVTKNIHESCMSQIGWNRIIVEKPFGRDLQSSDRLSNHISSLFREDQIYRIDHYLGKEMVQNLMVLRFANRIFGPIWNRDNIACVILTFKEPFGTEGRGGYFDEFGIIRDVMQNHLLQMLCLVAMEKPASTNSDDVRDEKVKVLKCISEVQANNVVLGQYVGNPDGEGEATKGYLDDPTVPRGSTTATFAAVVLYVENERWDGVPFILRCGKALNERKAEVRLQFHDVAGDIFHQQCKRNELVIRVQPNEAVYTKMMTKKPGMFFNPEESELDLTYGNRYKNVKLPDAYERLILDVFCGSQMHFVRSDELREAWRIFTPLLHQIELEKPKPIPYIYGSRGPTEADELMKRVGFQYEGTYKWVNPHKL

Caspase-3 = biological target: T4, Caspase-3 (Homo sapiens, UniProt P42574); type: functional;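 note: Dose-response selectivity test against caspase-3 for candidate inhibitors of sentrin-specific proteases (SENPs)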
T4 sequence (P42574 whole entry): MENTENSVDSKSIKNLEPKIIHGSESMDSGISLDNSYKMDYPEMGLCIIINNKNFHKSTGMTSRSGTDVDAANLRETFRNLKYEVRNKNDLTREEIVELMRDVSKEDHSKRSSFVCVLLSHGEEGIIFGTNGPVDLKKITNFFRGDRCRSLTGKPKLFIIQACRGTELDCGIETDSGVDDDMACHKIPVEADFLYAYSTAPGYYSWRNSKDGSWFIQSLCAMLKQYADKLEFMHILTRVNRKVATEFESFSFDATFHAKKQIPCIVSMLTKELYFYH

[8] = biological target: T5, Sentrin-specific protease 7 (Homo sapiens, UniProt Q9BQF6); type: functional;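 note: Luminescence-based dose-response confirmation of ultra-high-throughput screening hits, measuring inhibition of SENP7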
T5 sequence (Q9BQF6 whole entry): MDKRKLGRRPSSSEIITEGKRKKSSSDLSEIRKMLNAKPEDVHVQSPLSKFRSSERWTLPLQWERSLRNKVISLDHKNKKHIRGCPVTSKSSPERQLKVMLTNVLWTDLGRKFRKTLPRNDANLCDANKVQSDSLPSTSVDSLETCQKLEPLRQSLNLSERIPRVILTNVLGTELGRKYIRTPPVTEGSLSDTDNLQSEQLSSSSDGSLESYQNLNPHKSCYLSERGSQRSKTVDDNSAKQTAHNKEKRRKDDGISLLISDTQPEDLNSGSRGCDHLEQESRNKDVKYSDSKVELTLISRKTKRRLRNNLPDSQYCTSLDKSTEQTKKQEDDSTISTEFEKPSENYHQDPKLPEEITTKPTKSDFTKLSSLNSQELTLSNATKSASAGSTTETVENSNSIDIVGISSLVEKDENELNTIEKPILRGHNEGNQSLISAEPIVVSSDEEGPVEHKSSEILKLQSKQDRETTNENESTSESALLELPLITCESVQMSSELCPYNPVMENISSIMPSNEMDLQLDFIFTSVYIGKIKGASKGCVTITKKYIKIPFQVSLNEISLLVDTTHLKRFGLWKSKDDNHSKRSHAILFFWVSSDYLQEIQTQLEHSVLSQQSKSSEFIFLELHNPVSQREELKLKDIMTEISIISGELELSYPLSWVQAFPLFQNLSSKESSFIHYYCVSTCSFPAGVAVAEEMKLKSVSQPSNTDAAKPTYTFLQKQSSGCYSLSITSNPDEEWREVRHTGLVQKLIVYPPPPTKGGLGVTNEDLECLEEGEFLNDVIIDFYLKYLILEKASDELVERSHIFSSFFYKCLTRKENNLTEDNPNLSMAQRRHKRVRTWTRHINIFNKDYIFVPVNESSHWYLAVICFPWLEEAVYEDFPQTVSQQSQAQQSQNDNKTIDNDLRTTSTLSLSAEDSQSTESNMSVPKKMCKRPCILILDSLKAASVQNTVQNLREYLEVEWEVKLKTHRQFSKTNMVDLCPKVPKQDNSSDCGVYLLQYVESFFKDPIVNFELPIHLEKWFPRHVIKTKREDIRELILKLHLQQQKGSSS

[9] = biological target: T6, Sentrin-specific protease 6 (Homo sapiens, UniProt Q9GZR1); type: functional;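 note: Luminescence-based dose-response confirmatory assay of SENP6 inhibition, following up an ultra-high-throughput screen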
T6 sequence (Q9GZR1 whole entry): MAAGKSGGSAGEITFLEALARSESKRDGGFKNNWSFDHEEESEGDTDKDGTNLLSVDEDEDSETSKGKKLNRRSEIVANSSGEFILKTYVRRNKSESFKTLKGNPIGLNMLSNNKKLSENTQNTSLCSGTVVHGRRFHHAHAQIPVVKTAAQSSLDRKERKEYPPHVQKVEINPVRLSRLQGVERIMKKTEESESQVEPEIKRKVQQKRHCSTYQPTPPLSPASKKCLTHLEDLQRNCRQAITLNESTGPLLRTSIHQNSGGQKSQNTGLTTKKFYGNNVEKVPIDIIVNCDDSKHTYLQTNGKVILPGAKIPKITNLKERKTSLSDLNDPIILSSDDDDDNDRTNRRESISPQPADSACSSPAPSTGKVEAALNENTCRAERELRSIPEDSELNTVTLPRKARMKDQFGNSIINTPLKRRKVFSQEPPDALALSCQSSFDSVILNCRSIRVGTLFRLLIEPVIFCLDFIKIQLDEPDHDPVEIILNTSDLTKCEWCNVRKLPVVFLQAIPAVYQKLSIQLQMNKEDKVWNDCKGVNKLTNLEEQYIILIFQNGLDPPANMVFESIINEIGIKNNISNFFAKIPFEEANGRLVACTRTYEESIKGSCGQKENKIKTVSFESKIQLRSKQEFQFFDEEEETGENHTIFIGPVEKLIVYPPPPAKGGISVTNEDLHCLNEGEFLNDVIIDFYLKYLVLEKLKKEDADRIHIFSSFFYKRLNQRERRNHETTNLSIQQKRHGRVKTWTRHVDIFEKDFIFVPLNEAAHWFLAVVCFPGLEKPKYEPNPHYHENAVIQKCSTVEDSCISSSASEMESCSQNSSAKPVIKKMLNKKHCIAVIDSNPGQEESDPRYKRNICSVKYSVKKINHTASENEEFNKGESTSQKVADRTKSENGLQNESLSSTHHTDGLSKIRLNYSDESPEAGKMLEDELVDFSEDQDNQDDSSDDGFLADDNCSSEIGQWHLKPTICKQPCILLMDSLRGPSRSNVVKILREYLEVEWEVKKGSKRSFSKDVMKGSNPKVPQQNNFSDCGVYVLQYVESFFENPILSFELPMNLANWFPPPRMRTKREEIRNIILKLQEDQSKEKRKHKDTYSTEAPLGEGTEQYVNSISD

[10] = biological target: T7, Sentrin-specific protease 8 (Homo sapiens, UniProt Q96LD8); type: functional;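 note: luminescence read-out of SENP8 inhibition, dose-response confirmation following an ultra-high-throughput screen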
T7 sequence (Q96LD8 whole entry): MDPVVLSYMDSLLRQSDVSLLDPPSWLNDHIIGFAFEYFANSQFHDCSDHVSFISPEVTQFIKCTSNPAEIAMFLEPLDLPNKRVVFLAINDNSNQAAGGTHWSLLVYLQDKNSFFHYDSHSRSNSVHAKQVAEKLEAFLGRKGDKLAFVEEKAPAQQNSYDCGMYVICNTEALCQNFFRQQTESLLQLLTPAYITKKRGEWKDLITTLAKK

[11] = biological target: Mitogen-activated protein kinase 10 (Homo sapiens, UniProt P53779); experiment: Dose response biochemical screening assay for inhibitors of c-Jun N-Terminal Kinase 3 (JNK3). [Related pubchem assays: 746 ]
Mitogen-activated protein kinase 10, sequence (P53779 whole entry): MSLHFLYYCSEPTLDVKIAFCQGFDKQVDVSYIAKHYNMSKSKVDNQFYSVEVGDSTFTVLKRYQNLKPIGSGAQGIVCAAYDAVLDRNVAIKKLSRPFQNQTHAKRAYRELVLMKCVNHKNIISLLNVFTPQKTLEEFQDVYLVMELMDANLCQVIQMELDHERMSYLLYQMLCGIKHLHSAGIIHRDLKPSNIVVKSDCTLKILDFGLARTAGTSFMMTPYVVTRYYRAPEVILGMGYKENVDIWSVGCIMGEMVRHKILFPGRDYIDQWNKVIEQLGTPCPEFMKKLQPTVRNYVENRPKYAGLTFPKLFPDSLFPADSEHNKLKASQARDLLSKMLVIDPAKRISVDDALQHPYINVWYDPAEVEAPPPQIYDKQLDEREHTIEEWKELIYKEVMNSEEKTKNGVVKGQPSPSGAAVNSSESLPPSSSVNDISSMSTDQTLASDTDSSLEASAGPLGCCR

Caspase-6 = biological target: T8, Caspase-6 (Homo sapiens, UniProt P55212); experiment: human caspase-6 inhibitors, dose response, biochemical, VEID-R110 fluorescence, cherry-pick (AID 720632)
T8 sequence (P55212 whole entry): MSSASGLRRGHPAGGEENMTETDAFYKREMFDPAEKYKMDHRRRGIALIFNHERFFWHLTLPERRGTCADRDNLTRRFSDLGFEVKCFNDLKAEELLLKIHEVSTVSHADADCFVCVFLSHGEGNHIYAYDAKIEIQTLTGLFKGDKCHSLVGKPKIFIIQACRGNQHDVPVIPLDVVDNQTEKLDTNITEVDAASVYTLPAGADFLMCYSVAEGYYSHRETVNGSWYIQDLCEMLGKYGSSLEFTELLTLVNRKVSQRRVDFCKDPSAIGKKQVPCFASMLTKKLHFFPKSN

[12] = biological target: E3 ubiquitin-protein ligase Mdm2 (Homo sapiens, UniProt Q00987); experiment: enhancers of MDM2-luciferase reporter signal, concentration-effect titration, project on inhibitors of MDM2 ubiquitin ligase, cellular assay, luminescent readout, 384-well plate format (AID 1394); type: functional;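 note: MDM2 E3 inhibitors raise luminescence so EC50 is for signal enhancement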
E3 ubiquitin-protein ligase Mdm2, sequence (Q00987 whole entry): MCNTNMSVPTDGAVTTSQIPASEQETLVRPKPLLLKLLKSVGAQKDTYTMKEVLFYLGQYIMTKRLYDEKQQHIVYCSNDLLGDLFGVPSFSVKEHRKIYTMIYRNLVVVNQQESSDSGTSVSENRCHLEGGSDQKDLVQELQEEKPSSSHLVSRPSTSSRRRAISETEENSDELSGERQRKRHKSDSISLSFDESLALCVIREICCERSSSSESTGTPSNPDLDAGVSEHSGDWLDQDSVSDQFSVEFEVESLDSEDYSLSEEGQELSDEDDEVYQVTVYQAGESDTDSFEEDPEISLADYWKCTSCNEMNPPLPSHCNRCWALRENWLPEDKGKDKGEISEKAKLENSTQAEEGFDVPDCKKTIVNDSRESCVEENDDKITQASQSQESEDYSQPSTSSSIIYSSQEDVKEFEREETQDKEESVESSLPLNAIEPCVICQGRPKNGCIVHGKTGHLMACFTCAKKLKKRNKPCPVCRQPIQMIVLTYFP

HEK293 = experiment: inhibitors of LMP1-driven NF-kB reporter, dose response, cell-based, HEK293, luciferase, cherry-pick (AID 588343); type: functional; conditions: Homo sapiens

Structure (SMILES): CCN1CCN(C2=C(Cl)C(=O)N(c3ccc(Cl)c(Cl)c3)C2=O)CC1
- IC50 (Bcl-2-related protein A1 [1]): 1.67 µM (active)
- IC50 (Bcl-2-related protein A1 [2]): 0.97 µM (active)
- IC50 [3]: > 100 µM (not active)

Structure (SMILES): CN(C)C1=C(Cl)C(=O)N(c2cccc([N+](=O)[O-])c2)C1=O
- IC50 (Bcl-2-related protein A1 [1]): 2.3 µM (active)
- IC50 (Bcl-2-related protein A1 [2]): > 100 µM (not active)
- IC50 [3]: > 100 µM (not active)

Structure (SMILES): CC1Cc2ccccc2N1Cc1cc(=O)n2ccsc2n1 (stereo unspecified)
- IC50 [4]: > 100 µM (active)

Structure (SMILES): CC(=O)N1CCN(c2ccc(NCc3ccc4c(c3)OCO4)cc2)CC1
- IC50 [5]: 12.9 µM (active)
- IC50 [4]: 16.3 µM (active)

Structure (SMILES): CCC(C)N1C(=O)N(C)C2NC(=O)NC21 (stereo unspecified)
- AC50 [6]: 2.23 µM (active)

Structure (SMILES): COCCn1nnnc1C(c1cc2cc(OC)c(OC)cc2[nH]c1=O)N1CCN(c2ccc(O)cc2)CC1 (stereo unspecified)
- IC50 (Large T antigen): 6.67 µM (active)
- IC50 [7]: > 80 µM (inactive)
- IC50 [4]: > 100 µM (active)

Structure (SMILES): Cc1ccc(-n2nnc(-c3cccnc3Cl)n2)cc1
- IC50 (Caspase-3): 9.03 µM (active)
- IC50 (Bcl-2-related protein A1 [1]): > 100 µM (not active)
- IC50 (Bcl-2-related protein A1 [2]): > 100 µM (not active)
- IC50 [8]: 3.18 µM (active)
- IC50 [9]: 4.03 µM (active)
- IC50 [10]: > 100 µM (inactive)

Structure (SMILES): O=c1c2ccccc2nc(-c2ccco2)n1CCCn1ccnc1
- IC50 [11]: > 31 µM (not active)

Structure (SMILES): Cc1ccc(NC(=O)c2noc3c2CCC3)cc1C
- AC50 (Caspase-6): 5.83 µM (active)

Structure (SMILES): COC(=O)c1ccccc1NC(=O)COC(=O)CSCC(=O)N1CCOCC1
- IC50 [11]: > 93.1 µM (not active)

Structure (SMILES): Cc1ccc(C)c(N2CCN(S(=O)(=O)c3ccc4c(c3)CC(=O)N4C)CC2)c1
- AC50 [6]: > 30 µM (inactive)

Structure (SMILES): CC(C)c1ccc(OCc2cccc(C(=O)N/N=C/c3cccnc3)c2)cc1
- EC50 [12]: 0.02 µM (active)
- AC50 (HEK293): 0.98 µM (active)

Structure (SMILES): O=C(C1Cc2ccccc2CN1S(=O)(=O)c1ccc(F)cc1)N1CCOCC1 (stereo unspecified)
- AC50 [6]: 23.6 µM (active)
